Laboratory results from PubChem BioAssay (NCI).
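In this assay, cells in 96-well plates receive the compound at five concentrations for 48 hours. Endpoints are linearly interpolated between the surrounding concentrations. TGI marks complete inhibition of growth.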

What was measured:
Experiment in all cases: DTP human tumour cell line panel, 48 h
[1] = tested on: 786-0 renal
[2] = tested on: A498 renal
[3] = tested on: A549 NSCLC
[4] = tested on: ACHN renal
[5] = tested on: CCRF-CEM leukemia
[6] = tested on: COLO 205 colon
[7] = tested on: DLD-1 colon
[8] = tested on: DMS 114 small cell lung
[9] = tested on: DMS 273 small cell lung
[10] = tested on: EKVX NSCLC
[11] = tested on: HCC-2998 colon
[12] = tested on: HCT-116 colon
[13] = tested on: HL-60(TB) leukemia
[14] = tested on: HOP-18 NSCLC
[15] = tested on: HOP-62 NSCLC
[16] = tested on: HOP-92 NSCLC
[17] = tested on: HT29 colon
[18] = tested on: IGROV1 ovarian
[19] = tested on: K-562 leukemia
[20] = tested on: KM12 colon
[21] = tested on: KM20L2 colon
[22] = tested on: LOX IMVI melanoma
[23] = tested on: LXFL 529 NSCLC
[24] = tested on: M14 melanoma
[25] = tested on: M19-MEL melanoma
[26] = tested on: MALME-3M melanoma
[27] = tested on: MOLT-4 leukemia
[28] = tested on: NCI-H226 lung
[29] = tested on: NCI-H23 lung
[30] = tested on: NCI-H522 lung
[31] = tested on: OVCAR-3 ovarian
[32] = tested on: OVCAR-5 ovarian
[33] = tested on: OVCAR-8 ovarian
[34] = tested on: RPMI-8226 leukemia
[35] = tested on: RXF 393 renal
[36] = tested on: SF-268 CNS
[37] = tested on: SF-295 CNS
[38] = tested on: SF-539 CNS
[39] = tested on: SK-MEL-2 melanoma
[40] = tested on: SK-MEL-28 melanoma
[41] = tested on: SK-MEL-5 melanoma
[42] = tested on: SK-OV-3 ovarian
[43] = tested on: SN12C renal
[44] = tested on: SNB-19 CNS
[45] = tested on: SNB-75 CNS
[46] = tested on: SNB-78 CNS
[47] = tested on: SR leukemia
[48] = tested on: SW-620 colon
[49] = tested on: TK-10 renal
[50] = tested on: U251 CNS
[51] = tested on: UACC-257 melanoma
[52] = tested on: UACC-62 melanoma
[53] = tested on: UO-31 renal
[54] = tested on: XF 498 CNS

Measured: TGI

CCOC(=O)c1c(-c2ccccc2)oc(-c2ccccc2)c1C(=O)OCC
> 100 µM: all assays above
